Assay results: paper PMC7870626, “Neurotoxicity and underlying cellular changes of 21 mitochondrial respiratory chain inhibitors” (Archives of Toxicology, 2021)
Read-outs that look alike come from different tables or passages of the source.

Tests used:
[1] = test system: U2OS cells; assay: cells; assay type: cell-based; conditions: Homo sapiens, 24 h
How it was run: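 Cytotox CALUX U2OS cells, constitutively expressing luciferase, dosed with a compound dilution series 24 h after seeding and exposed 24 h. Luminescence after lysis reflects live-cell number; scaled between vehicle (100%) and 100 µM tributyltin acetate (0%).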

[2] = test system: LUHMES cells; assay: Intracellular ATP content after NeuriTox exposure; assay type: cell-based; conditions: Homo sapiens, 24 h
How it was run: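 LUHMES cells differentiated 48 h were re-seeded without cAMP/GDNF and exposed for 24 h starting 1 h after seeding; in the 120 h scenario, cells were dosed on d5 and d7 with read-out on d10. After imaging, intracellular ATP measured by CellTiterGlo 2.0 luminescence, background-corrected.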

[3] = test system: SH-SY5Y cells; assay: Mitochondrial membrane potential (rhodamine 123), KE2 assay; assay type: cell-based, human; conditions: for EC25: Homo sapiens; for Ratios of EC25 KE4/KE2 MMP: NeuriTox neurite EC25 relative to SH-SY5Y MMP EC25
[4] = test system: proteasome; assay: Proteasomal activity (KE3 assay) in LUHMES cells; assay type: cell-based, human; conditions: for Ratios of EC25 KE4/KE3 proteasomal: NeuriTox neurite EC25 relative to proteasomal activity EC25, LUHMES
Method: Activity of the proteasome was quantified as described in (Gutbier et al. [2018b]). Briefly, after exposure, culture medium was replaced by assay buffer containing a cell-permeable proteasomal substrate (MeOSuc-Gly-Leu-Phe-AMC, 25 µM (Bachem, Bubendorf, Switzerland) in HBSS). Its AMC-fluorescence (ex: 360 nm, em: 465 nm) increases with proteasomal activity and was monitored for 90 min. Background-corrected data were used for further analysis.

[5] = test system: LUHMES cells; assay type: cell-based, human
Method: Cells were cultured and treated as described above for the NeuriTox assay. On d3, after 24 h treatment, culture medium was replaced by 33 µl/well 1 × Biospyder lysis buffer. After 15 min at room temperature, plates were sealed and frozen at -80 °C to complete lysis. Samples were analyzed at Bioclavis (Glasgow) using the TempO-Seq technique and the EU-ToxRisk v2.0 gene probe panel covering ca. 3000 genes (Yeakley et al. [2017]). All genes are listed in the supplementary excel file (containing also all gene regulations). Briefly, a 50 bp fragment of the target gene was amplified. The amplification step also introduced sample-specific barcodes. This allowed pooling of all samples and standard next-generation sequencing of the ensemble. Afterward, adapters were used to allocate the sequenced fragments to the correct samples. Finally, the alignment of all sequenced fragments (FASTQ files) for each sample to the collection of reference 50 bp oligonucleotides was performed for the quantification of reads per gene, also known as the read count values. In a pre-filtering step, samples with a total count < 0.2 million and genes with an average count < 1.5 were removed.
To correct for both read depth and RNA composition, the DESeq2′s median of ratios normalization was applied. The analysis of differentially expressed genes (DEG) of each treatment against the control group was done by the Wald test implemented in DESeq2/R (Love et al. [2014]), including an FDR correction for p-adjusted ≤ 0.05. […] A curve was fit through these concentration–response data to obtain EC10DEG. For comparability, all DEG data were normalized to a positive control. […] The EC10DEG was calculated using an established online open access BMC calculator (BMCeasy) (Krebs et al. [2020]).

[6] = test system: HepG2 cells; assay: HepG2-based respirometry, total cell respiration (earlier study); conditions: NeuriTox neurite EC25 relative to cell respiration EC25; respirometric data from HepG2-based assays ref van der Stel et al. 2020
[7] = test system: MRC complex (cI, cII or cIII); assay: HepG2-based MRC complex assay in permeabilized cells (earlier study); assay type: cell-based; conditions: NeuriTox neurite EC25 relative to complex assay EC25 in permeabilized cells; respirometric data from HepG2-based assays ref van der Stel et al. 2020
[8] = U2OS osteosarcoma cells, luminescence of constitutively expressed luciferase, read-out: Cytotox EC25 U2OS (converted)
[9] = NeuriTox exposure scheme, read-out: LUHMES 24 h EC25 ATP (converted)
[10] = SH-SY5Y differentiated 6 days, treated 24 h, rhodamine-123, read-out: pEC25 MMP (concentration where MMP was reduced by 25%) (converted)

Compound: COC(=O)N(OC)c1ccccc1COc1ccn(-c2ccc(Cl)cc2)n1 [Pyraclostrobin]
- EC25 [1, 8]: > 100 µM
- EC25 [2, 9]: 12.6 µM
- EC25 [3, 10]: 0.316 µM
- Ratios of EC25 KE4/KE2 MMP [3]: 85
- Ratios of EC25 KE4/KE3 proteasomal [4]: 0.7
- log2FoldChange AARS ([5]; gene AARS, 0.0856 µM, 24 h, vs 0.1% DMSO): -0.28 log2
- log2FoldChange AASDHPPT ([5]; gene AASDHPPT, 0.0856 µM, 24 h, vs 0.1% DMSO): 0.80 log2
- log2FoldChange AATF ([5]; gene AATF, 0.0856 µM, 24 h, vs 0.1% DMSO): -0.24 log2
- log2FoldChange ABCA1 ([5]; gene ABCA1, 0.0856 µM, 24 h, vs 0.1% DMSO): -1.33 log2
- log2FoldChange ABCA6 ([5]; gene ABCA6, 0.0856 µM, 24 h, vs 0.1% DMSO): 0.89 log2
- Ratios of EC25 KE4/KE1 total respiration [6]: 100
- Ratios of EC25 KE4/KE1 complex assay [7]: 400

Compound: C=C(C)[C@H]1Cc2c(ccc3c2O[C@@H]2COc4cc(OC)c(OC)cc4[C@@H]2C3=O)O1 [Rotenone]
- EC25 ([1]; U2OS, read-out: Cytotox EC25 U2OS): 31.6 µM
- EC25 ([2]; read-out: LUHMES 24 h EC25 ATP): 5.01 µM
- EC25 ([3]; SH-SY5Y, 24 h, read-out: pEC25 MMP (concentration where MMP was reduced by 25%)): 0.0398 µM
- Ratios of EC25 KE4/KE2 MMP [3]: 2.1
- Potency on neurotoxicity (KE4/AO) relative to proteostasis (KE3) ([4]; LUHMES): 100 times
- Ratios of EC25 KE4/KE3 proteasomal [4]: 0.01
- Proteasomal function (in words) ([4]; d2 LUHMES, 22 h incubation): reduced proteasome function at non-cytotoxic concentrations
- log2FoldChange AARS [5]: -0.41 log2
- log2FoldChange AASDHPPT [5]: 0.79 log2
- log2FoldChange AATF [5]: -0.42 log2
- log2FoldChange ABCA1 [5]: -0.98 log2
- log2FoldChange ABCA6 [5]: -0.24 log2
- Ratios of EC25 KE4/KE1 total respiration [6]: 1.3
- Ratios of EC25 KE4/KE1 complex assay [7]: 7.9

Compound: CCCCCC[C@H]1C(=O)O[C@H](C)[C@H](NC(=O)c2cccc(NC=O)c2O)C(=O)O[C@@H](C)[C@@H]1OC(=O)CC(C)C [Antimycin A]
- EC25 [1, 8]: 100 µM
- EC25 [2, 9]: 25.1 µM
- EC25 [3, 10]: 0.0631 µM
- Ratios of EC25 KE4/KE2 MMP [3]: 257
- Ratios of EC25 KE4/KE3 proteasomal [4]: 1.1
- log2FoldChange AARS ([5]; gene AARS, 0.08 µM, 24 h, vs 0.1% DMSO): -0.20 log2
- log2FoldChange AASDHPPT ([5]; gene AASDHPPT, 0.08 µM, 24 h, vs 0.1% DMSO): -0.32 log2
- log2FoldChange AATF ([5]; gene AATF, 0.08 µM, 24 h, vs 0.1% DMSO): 0.18 log2
- log2FoldChange ABCA1 ([5]; gene ABCA1, 0.08 µM, 24 h, vs 0.1% DMSO): -0.64 log2
- log2FoldChange ABCA6 ([5]; gene ABCA6, 0.08 µM, 24 h, vs 0.1% DMSO): 1.98 log2
- Ratios of EC25 KE4/KE1 total respiration [6]: 1580
- Ratios of EC25 KE4/KE1 complex assay [7]: 1580
